Measured values taken from patent US20030113913A1, “Method of enhancing self renewal of stem cells and uses thereof” (PETER MACCALLUM CANCER INSTITUTE, priority 2001, published 2003).

Key:
[1] = test system: lin− c-kit+ Sca-1+ CD45.2+ (LKS) murine hematopoietic precursors; test: Serial transplantation of LKS hematopoietic precursors cultured with or without ATRA (congenic mouse model); format: in vivo; conditions: for donor repopulating levels of quaternary transplant recipients: CD45.2+ donor cells in peripheral blood, mean ± SEM
Description: 2000 FACS-enriched hematopoietic precursors (lin− c-kit+ Sca-1+) were added to wells containing media and cytokines (SCF, IL-6, IL-11 and Flt-3 ligand), and cultured without (No ATRA) or with (ATRA) 1 umol ATRA. Irradiated primary Ly5.1 recipients (6 mice per group) were transplanted with 100 000 normal Ly5.1 bone marrow cells together with 1000 noncultured (Start) Ly5.2 lin− c-kit+ Sca-1+ cells or with all cells that grew from 1000 of these precursors after 3 (3D) or 7 (7D) days in liquid suspension culture. Subsequent transplants (secondary, tertiary and quaternary) were performed using fractions of bone marrow harvested from the primary, secondary or tertiary, respectively, transplant recipients. Data are expressed as the mean +/− SEM donor cell reconstitution in the peripheral blood of transplanted recipients analyzed at 6 months (primary recipients) or 3 months (secondary, tertiary and quaternary recipients) post-transplant.
These studies may be proven using in vivo assays, preferably using small animal models, more preferably using the congenic mouse hematopoietic stem cell transplantation model. This model relies on the use of donor and recipient mice that can be distinguished from each other by the presence of different epitopes for the leukocyte common antigen, which is present on all white blood cells.
Irradiated CD45.1+ primary murine recipients were transplanted with 1×10^5 normal CD45.1+ bone marrow cells together with 1000 freshly isolated lin− c-kit+ Sca-1+ CD45.2+ (LKS) murine hematopoietic precursors or with all cells that grew from 1000 LKS after 3 or 7 days of culture with or without 1 μM ATRA. Primary recipients were euthanased 6 months post-transplant, their femoral marrows flushed and pooled within treatment groups and bone marrow from 1/10th of a femur of these mice were injected into each secondary irradiated recipient. Subsequent serial transplants were likewise performed at 4 month intervals post-transplant, with the 5th serial transplant currently being assessed. Recipient mice were analysed for multilineage repopulating donor cells (>5% CD45.2+) in each round of transplants.

RARβ2 = test: RT-PCR expression of RARβ2 in LKS+ and LKS− cells cultured with or without ATRA; format: cell-based, murine; conditions: cells derived from LKS+ and LKS− cultured with 1 μmol ATRA for 3, 7 or 14 days
Description: FACS-enriched hematopoietic precursors (lin− c-kit+ Sca-1+ or lin− c-kit+ Sca-1−) were added to wells containing media and cytokines (SCF, IL-6, IL-11 and Flt-3 ligand), and cultured without (No ATRA) or with (+ATRA) 1 μmol ATRA for 3, 7 or 14 days. […] LKS+=lin− c-kit+ Sca-1+ cells, LKS−=lin− c-kit+ Sca-1− cells; D=day of culture.
(§1) Consideration was then given to the expression of the different RARs by progeny derived from lin− c-kit+ Sca-1+ cells (LKS+) or lin− c-kit+ Sca-1− cells (LKS−) after they had been cultured with or without ATRA for 3, 7 and 14 days.

RARγ1 = test: RT-PCR expression of RARγ1 in LKS+ and LKS− cells cultured with or without ATRA; format: cell-based, murine
Description: FACS-enriched hematopoietic precursors (lin− c-kit+ Sca-1+ or lin− c-kit+ Sca-1−) were added to wells containing media and cytokines (SCF, IL-6, IL-11 and Flt-3 ligand), and cultured without (No ATRA) or with (+ATRA) 1 μmol ATRA for 3, 7 or 14 days. After culture, the cells were retrieved, mRNA prepared and expression of RAR γ 1 was analysed by RT-PCR methods. LKS+=lin− c-kit+ Sca-1+ cells, LKS−=lin− c-kit+ Sca-1− cells; D=day of culture.
as §1

evidence of leukemia in recipient mice ([1]; recipients of ATRA-treated LKS, successive rounds of transplants): nor was there any evidence of leukemia
SMILES: CC1=C(/C=C/C(C)=C/C=C/C(C)=C/C(=O)O)C(C)(C)CCC1 [ATRA, all trans-retinoic acid]
donor repopulating levels of quaternary transplant recipients ([1]; LKS cultured 3 days with 1 μM ATRA): 20.09±8.63% | donor repopulating levels of quaternary transplant recipients ([1]; LKS cultured 7 days with 1 μM ATRA): 14.98±5.94% | multilineage donor reconstituting ability in serial transplant recipients ([1]; all serial transplant recipients of 3 day and 7 day ATRA-treated LKS (1 μM)): significant multilineage donor reconstituting ability | marrow cellularity of transplanted mice ([1]; successive rounds of transplants, all treatment groups compared): no significant difference in marrow cellularity | RARβ2 expression (RARβ2): upregulates RARβ2 in cultured cells | RARγ1 expression (RARγ1; LKS+ cells cultured with 1 μmol ATRA for 3, 7 or 14 days): maintained | RARγ1 expression (RARγ1; LKS− cells cultured with 1 μmol ATRA): not expressed
